Experimental data: patent publication US5073562A, “Alkoxy-substituted dihydrobenzopyran-2-carboxylic acids and derivatives thereof” (G. D. Searle & Co., priority 1990, dated 1991)

Key:
[1] = test system: Human neutrophils (LTB4 chemotaxis); assay: Modified Boyden Chamber Chemotaxis, LTB4; format: cell-based; parameters: key to Chemotaxis LTB4, inactive at the dose tested: IA: Inactive at the dose tested; details: for Relative Potency, Chemotaxis LTB4: potency relative to the compound of Example 1(b), defined as 1.0, 3×10^-8 M LTB4, 40-90 minute, 37° C.
Experimental: (§1) Human neutrophils were isolated from citrated peripheral blood using standard techniques of dextran sedimentation, followed by centrifugation on Histopaque® sterile solution (Sigma) or Ficoll-paque® (Pharmacia) and hypotonic lysis of erythrocytes. A final cell suspension of 3.4×10^6 neutrophils/ml of HEPES-buffered Hanks' balanced salt solution (HBSS, pH 7.3) was added to the upper well (0.8 ml) of a modified Boyden chamber (blind well). […] The number of neutrophils migrating into the lower chamber in the absence of chemoattractant was subtracted from the number of cells migrating in the presence of a chemoattractant. Inhibition of chemotaxis by test compounds was expressed as percent inhibition relative to uninhibited control. […] Pat. No. 4,889,871.

[2] = test system: Human neutrophils (fMLP chemotaxis); assay: Modified Boyden Chamber Chemotaxis, fMLP; format: cell-based; details: for Relative Potency, Chemotaxis fMLP: potency relative to the compound of Example 1(b), defined as 1.0
Experimental: as §1

[3] = biological target: T1, LTB4 Receptor (Homo sapiens, UniProt Q15722); assay: LTB4 Receptor Binding Assay ((3H) LTB4, neutrophils); details: potency relative to the compound of Example 1(b), defined as 1.0, 0.6×10^-9 M (3H) LTB4, 0° C., 45 minutes
T1 construct: Neutrophils were purified from venous blood of normal human donors; endogenous in cells; host or cells: human peripheral blood neutrophils (purity >95%)
Experimental: The incubation was carried out at 0° C. for 45 minutes and terminated by adding 5 ml of ice-cold HBSS followed by rapid filtration of the incubation mixture under vacuum through GF/C glass fiber filters. The filters were further washed with 10 ml HBSS and radioactivity was determined. […] All data refer to specific binding. […] Pat. No. 4,889,871.

T1 sequence (Q15722 whole entry): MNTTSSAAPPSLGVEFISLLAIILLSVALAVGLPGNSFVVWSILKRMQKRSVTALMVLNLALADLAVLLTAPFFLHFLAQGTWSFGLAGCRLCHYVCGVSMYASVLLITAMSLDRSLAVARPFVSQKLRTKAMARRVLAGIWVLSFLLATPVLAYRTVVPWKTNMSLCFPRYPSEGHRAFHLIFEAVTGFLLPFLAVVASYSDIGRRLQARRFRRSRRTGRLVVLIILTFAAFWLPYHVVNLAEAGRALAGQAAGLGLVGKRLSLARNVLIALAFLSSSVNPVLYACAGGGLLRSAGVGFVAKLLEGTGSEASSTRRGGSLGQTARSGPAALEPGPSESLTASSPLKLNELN

Row | SMILES | IC50 ([1]; Homo sapiens, Neutrophil, value in parentheses, 3×10^-8 M LTB4) [µM] | IC50 ([2]; Homo sapiens, Neutrophil, value in parentheses) [µM] | Relative Potency, LTB4 Receptor Binding [3] | Relative Potency, Chemotaxis LTB4 [1] | Relative Potency, Chemotaxis fMLP [2] | Chemotaxis LTB4, inactive at the dose tested ([1]; dose not given, 3×10^-8 M LTB4)
1 | CCCc1c(OCCCOc2ccc(C(C)=O)c(OC)c2CCC)ccc2c1OC(C(=O)O)CC2 (centres unmarked) [Example 1(b), 7-[3-(4-acetyl-3-methoxy-2-propylphenoxy)propoxy]-3,4-dihydro-8-propyl-2H-1-benzopyran-2-carboxylic acid, reference compound] | 1.8 | 5.4 |  |  |  | 
2 | CCCc1c(OCCCOc2ccc(-c3cocn3)c(OC)c2CCC)ccc2c1OC(C(=O)O)CC2 (centres unmarked) [Example 5, 3,4-Dihydro-7-[3-[3-methoxy-4-(4-oxazolyl)-2-propylphenoxy]propoxy]-8-propyl-2H-1-benzopyran-2-carboxylic acid] |  |  | 4.0 | 2.2 | 0.73 | 
3 | CCCc1c(OCCCOc2ccc(-c3c[nH]cn3)c(OC)c2CCC)ccc2c1OC(C(=O)O)CC2 (centres unmarked) [Example 9] |  |  | 1.0 | 0.66 | 0.45 | 
4 | CCCc1c(OCCCOc2ccc(-c3coc(C)n3)c(OC)c2CCC)ccc2c1OC(C(=O)O)CC2 (centres unmarked) [Example 14, 3,4-dihydro-7-[3-[3-methoxy-4-(2-methyl-4-oxazolyl)-2-propylphenoxy]propoxy]-8-propyl-2H-1-benzopyran-2-carboxylic acid] |  |  | 0.47 | < 0.1 |  | 
5 | C=CCc1c(OCCCOc2ccc3c(c2CCC)OC(C(=O)O)CC3)ccc(-c2cscn2)c1OC (centres unmarked) [Example 17, 3,4-dihydro-7-[3-[3-methoxy-2-(2-propenyl)-4-(4-thiazolyl)-phenoxy]propoxy]-8-propyl-2H-1-benzopyran-2-carboxylic acid] |  |  | 11.6 | 8.3 | 1.9 | 
6 | CCCc1c(OCCCOc2ccc(-c3csc(=S)[nH]3)c(OC)c2CCC)ccc2c1OC(C(=O)O)CC2 (centres unmarked) [Example 26, 3,4-Dihydro-7-[3-[4-(2,3-dihydro-2-thioxo-4-thiazolyl)-3-methoxy-2-propylphenoxy]propoxy]-8-propyl-2H-1-benzopyran-2-carboxylic acid] |  |  | 0.51 |  |  | 

More lines, main results first:

Row | IC50 ([1]; Homo sapiens, Neutrophil, value in parentheses, 3×10^-8 M LTB4) [µM] | IC50 ([2]; Homo sapiens, Neutrophil, value in parentheses) [µM] | Relative Potency, LTB4 Receptor Binding [3] | SMILES | Relative Potency, Chemotaxis LTB4 [1] | Relative Potency, Chemotaxis fMLP [2] | Chemotaxis LTB4, inactive at the dose tested ([1]; dose not given, 3×10^-8 M LTB4)
7 |  |  | 2.65 | CCCc1c(OCCCOc2ccc(-c3c[nH]c(SCc4ccccc4)n3)c(OC)c2CCC)ccc2c1OC(C(=O)O)CC2 (centres unmarked) [Example 8, 3,4-Dihydro-7-[3-[3-methoxy-4-[2-[(phenylmethyl)thio]-1H-imidazol-4-yl]-2-propylphenoxy]propoxy]-8-propyl-2H-1-benzopyran-2-carboxylic acid] | 1.86 | 2.0 | 
8 |  |  | 1.56 | CCCc1c(OCCCOc2ccc(-c3csc(N)n3)c(OC)c2CCC)ccc2c1OC(C(=O)O)CC2 (centres unmarked) [Example 10, 7-[3-[4-(2-amino-4-thiazolyl)3-methoxy-2propylphenoxy]propoxy]3,4-dihydro-8-propyl-2H-1-benzopyran-2-carboxylic acid] | 0.63 | 1.4 | 
9 |  |  | 4.5 | CCCc1c(OCCCOc2ccc(-c3cscn3)c(OC)c2CCC)ccc2c1OC(C(=O)O)CC2 (centres unmarked) [Example 12, 3,4-dihydro-7-[3-[3-methoxy-2-propyl-4-(4-thiazolyl)phenoxy]-propoxy]-8-propyl-2H-1-benzopyran-2-carboxylic acid] | 3.0 | 1.1 | 
10 |  |  | 0.31 | CCCc1c(OCCCOc2ccc(-c3csc(OC)n3)c(OC)c2CCC)ccc2c1OC(C(=O)O)CC2 (centres unmarked) [Example 24, 3,4-Dihydro-7-[3-[3-methoxy-4-(2-methoxy-4-thiazolyl)-2-propylphenoxy]propoxy]-8-propyl-2H-1-benzopyran-2-carboxylic acid] | < 0.23 |  | 
11 |  |  | 0.19 | CCCc1c(OCCCOc2ccc(-c3csc(SC)n3)c(OC)c2CCC)ccc2c1OC(C(=O)O)CC2 (centres unmarked) [Example 28] | 0.05 |  | 
12 |  |  | 0.02 | CCCc1c(OCCCOc2ccc(-c3csc(SCc4ccccc4)n3)c(OC)c2CCC)ccc2c1OC(C(=O)O)CC2 (centres unmarked) [Example 29] |  |  | IA
